Data reported in PMC9671962 (Communications Biology, 2022).
“And” between values parts separate entries of the source, which are not always exact repeats. Identical values can stand only once.

Tests used:
[1] = Mouse weight over time / tolerability in PDX efficacy study (Fig. 1f); type: in vivo
Procedure: The use of 2 mice per arm was based on the previously reported statistical analysis. PDX tumors were implanted into the right flank of 5 to 6-weeks old female mice weighing about 20–25 grams. […] Two additional dose levels of 12, and 24 MBq/kg/fraction were assessed in a subset of models and were administered as stated above. In two models treated at the 24 MBq/kg/fraction dose level we re-challenged tumor response at the time of tumor progression with an additional 4 dose fractions at 24 MBq/kg/fraction given twice weekly. Doses were prepared in 500 µL total volume. An equal volume of saline was used for the vehicle group. Tumors were measured using a digital caliper at the initiation of the study and two times per week during the treatment period. Tumor volumes were calculated as volume = ([…]∗0.5236)/1000. Weights were obtained twice weekly and mice were monitored daily for signs of toxicity. […] Tumor response was assessed by best response defined as greatest reduction in tumor volume following the last dose and is presented as percent change in tumor volume. Event-free survival was determined by area over the curve method that calculates the time to tumor event, which was defined as tumors reaching or exceeding a size ≥ 2 cm^3.

[2] = system: platelets, white blood cells, lymphocytes, neutrophils; assay: Hematological toxicity by complete blood counts; type: in vivo, CB-17 SCID mice; parameters: Neutrophils / Lymphocytes / WBC: unit not given here; conditions: for Lymphocytes / Neutrophils / Platelets / WBC: 72 hours post-treatment, single mouse
Procedure: Toxicity studies were done in nontumor bearing CB-17 SCID mice (Taconic Biosciences). […] Each arm had n = 10 mice (5 male, 5 female mice). […] The vehicle group received an equal volume of saline (placebo). Weights were obtained twice weekly and mice were monitored daily for signs of toxicity. […] On target hematological and marrow toxicity which was evaluated by complete blood counts and marrow colony formation assay. An additional study was performed under identical conditions to evaluate additive dose effects. […] Each treatment group was composed of equal numbers of male and female mice to rule out gender-specific effects (n = 4 per treatment group per time point). Mice were followed for signs of acute toxicity for 2 weeks and 4 weeks before euthanasia. An additional group (n = 4) treated at 36 MBq/kg was euthanized after 72 h to assess early signs of toxicity by colony formation assays. This time course was chosen to best capture the nadir of bone marrow suppression. After euthanasia, blood was collected and femurs were dissected and processed for histopathology and bone marrow evaluation.
Animals were monitored weekly for weight and daily for signs of distress until the time of euthanasia. […] Mice were anesthetized with mixed inhalation isoflurane/oxygen under a nosecone. Terminal cardiac puncture was performed and peripheral blood was transferred to K2EDTA BD Microtainer tubes (BD, San Antonio, TX). Sample volume injected was 20 µL and was pre-specified using the mouse protocol on the instrument.

O=C1NCCn2c(-c3ccc([211At])cc3)nc3cccc1c32 [[^211At]PTT, Astatine-211-parthanatine]
Percent Body Weight from study initiation ([1]; COG415-325, 12 MBq/kg/fraction x 4, 0.4 Weeks): 100.48% and 95.77% | Percent Body Weight from study initiation ([1]; COG415-325, 12 MBq/kg/fraction x 4, 1 Weeks): 100.97% and 94.84% | Percent Body Weight from study initiation ([1]; COG415-325, 12 MBq/kg/fraction x 4, 1.4 Weeks): 100% and 92.96% | Percent Body Weight from study initiation ([1]; COG415-325, 12 MBq/kg/fraction x 4, 2 Weeks): 97.58% and 92.96% | Percent Body Weight from study initiation ([1]; COG415-325, 12 MBq/kg/fraction x 4, 2.4 Weeks): 103.86% and 98.12% | Percent Body Weight from study initiation ([1]; COG415-325, 12 MBq/kg/fraction x 4, 3 Weeks): 102.42% and 99.53% | Percent Body Weight from study initiation ([1]; COG415-325, 12 MBq/kg/fraction x 4, 3.4 Weeks): 108.7% and 102.35% | Percent Body Weight from study initiation ([1]; COG415-325, 12 MBq/kg/fraction x 4, 4 Weeks): 111.11% and 110.33% | Percent Body Weight from study initiation ([1]; COG415-650, 24 MBq/kg/fraction x 4, 0.4 Weeks): 102.79% and 99.52% | Percent Body Weight from study initiation ([1]; COG415-650, 24 MBq/kg/fraction x 4, 1 Weeks): 96.74% and 92.82% | Percent Body Weight from study initiation ([1]; COG415-650, 24 MBq/kg/fraction x 4, 1.4 Weeks): 92.56% and 90.43% | Percent Body Weight from study initiation ([1]; COG415-650, 24 MBq/kg/fraction x 4, 2 Weeks): 90.23% and 87.56% | Percent Body Weight from study initiation ([1]; COG415-650, 24 MBq/kg/fraction x 4, 2.4 Weeks): 93.49% and 92.34% | Percent Body Weight from study initiation ([1]; COG415-650, 24 MBq/kg/fraction x 4, 3 Weeks): 100.93% and 99.04% | Percent Body Weight from study initiation ([1]; COG415-650, 24 MBq/kg/fraction x 4, 3.4 Weeks): 100% and 96.65% | Percent Body Weight from study initiation ([1]; COG415-650, 24 MBq/kg/fraction x 4, 4 Weeks): 102.33% and 99.04% | Percent Body Weight from study initiation ([1]; COG415-650, 24 MBq/kg/fraction x 4, 4.4 Weeks): 106.05% and 102.39% | Percent Body Weight from study initiation ([1]; COG415-650, 24 MBq/kg/fraction x 4, 5 Weeks): 107.44% and 96.65% | Percent Body Weight from study initiation ([1]; COG415-650, 24 MBq/kg/fraction x 4, 5.4 Weeks): 111.63% and 101.91% | Percent Body Weight from study initiation ([1]; COG415-650, 24 MBq/kg/fraction x 4, 6 Weeks): 104.31% | Percent Body Weight from study initiation ([1]; COG415-975, 36 MBq/kg/fraction x 4, 0 Weeks): 100% | Percent Body Weight from study initiation ([1]; COG415-975, 36 MBq/kg/fraction x 4, 0.4 Weeks): 94.07% and 98.23% | Percent Body Weight from study initiation ([1]; COG415-975, 36 MBq/kg/fraction x 4, 1 Weeks): 84.75% and 90.71% | Percent Body Weight from study initiation ([1]; COG415-975, 36 MBq/kg/fraction x 4, 1.4 Weeks): 80.51% and 90.27% | Percent Body Weight from study initiation ([1]; COG415-975, 36 MBq/kg/fraction x 4, 2 Weeks): 72.88% and 79.65% | Percent Body Weight from study initiation ([1]; COG415-975, 36 MBq/kg/fraction x 4, 2.4 Weeks): 77.97% and 83.63% | Percent Body Weight from study initiation ([1]; COG415-975, 36 MBq/kg/fraction x 4, 3 Weeks): 80.08% and 81.86% | Percent Body Weight from study initiation ([1]; COG415-975, 36 MBq/kg/fraction x 4, 3.4 Weeks): 75.42% and 81.42% | Percent Body Weight from study initiation ([1]; COG415-975, 36 MBq/kg/fraction x 4, 4 Weeks): 80.93% and 80.09% | Percent Body Weight from study initiation ([1]; COG415-975, 36 MBq/kg/fraction x 4, 4.4 Weeks): 82.2% and 82.3% | Percent Body Weight from study initiation ([1]; COG415-975, 36 MBq/kg/fraction x 4, 5 Weeks): 88.56% and 88.05% | Percent Body Weight from study initiation ([1]; COG415-975, 36 MBq/kg/fraction x 4, 5.4 Weeks): 88.98% and 91.59% | Percent Body Weight from study initiation ([1]; COG415-975, 36 MBq/kg/fraction x 4, 6.1 Weeks): 96.19% and 92.48% | Percent Body Weight from study initiation ([1]; COG415-975, 36 MBq/kg/fraction x 4, 6.4 Weeks): 94.07% and 90.71% | Percent Body Weight from study initiation ([1]; COG415-975, 36 MBq/kg/fraction x 4, 7 Weeks): 99.58% and 93.36% | Percent Body Weight from study initiation ([1]; COG415-975, 36 MBq/kg/fraction x 4, 7.4 Weeks): 101.27% and 93.36% | Percent Body Weight from study initiation ([1]; COG415-975, 36 MBq/kg/fraction x 4, 8 Weeks): 95.48% | Percent Body Weight from study initiation ([1]; COG415-975, 36 MBq/kg/fraction x 4, 8.9 Weeks): 100.44% | Percent Body Weight from study initiation ([1]; COG415-975, 36 MBq/kg/fraction x 4, 9.4 Weeks): 100.88% | Percent Body Weight from study initiation ([1]; COG415-975, 36 MBq/kg/fraction x 4, 10 Weeks): 101.77% | Percent Body Weight from study initiation ([1]; COG415-975, 36 MBq/kg/fraction x 4, 10.4 Weeks): 103.98% | Percent Body Weight from study initiation ([1]; COG415-975, 36 MBq/kg/fraction x 4, 11 Weeks): 107.08% | Percent Body Weight from study initiation ([1]; COG415-975, 36 MBq/kg/fraction x 4, 12 Weeks): 105.31% | Percent Body Weight from study initiation ([1]; COG519-325, 12 MBq/kg/fraction x 4, 0 Weeks): 100% | Percent Body Weight from study initiation ([1]; COG519-325, 12 MBq/kg/fraction x 4, 0.4 Weeks): 100% and 97.98% | Percent Body Weight from study initiation ([1]; COG519-325, 12 MBq/kg/fraction x 4, 1 Weeks): 93.83% and 96.97% | Percent Body Weight from study initiation ([1]; COG519-650, 24 MBq/kg/fraction x 4, 0 Weeks): 100% | Percent Body Weight from study initiation ([1]; COG519-650, 24 MBq/kg/fraction x 4, 0.4 Weeks): 97.69% and 96.86% | Percent Body Weight from study initiation ([1]; COG519-650, 24 MBq/kg/fraction x 4, 1 Weeks): 95.37% and 97.38% | mice censored from EFS analysis due to weight loss >20% ([1]; MTD, two out of 22 mice, >50 days from treatment): 9% | Percent Body Weight from study initiation ([1]; NBSD-650, 24 MBq/kg/fraction x 4, 2.6 Weeks): 90.4306% and 91.4027% | Percent Body Weight from study initiation ([1]; NBSD-650, 24 MBq/kg/fraction x 4, 3 Weeks): 94.7368% and 92.3077% | Percent Body Weight from study initiation ([1]; NBSD-650, 24 MBq/kg/fraction x 4, 3.6 Weeks): 95.2153% and 92.7602% | Percent Body Weight from study initiation ([1]; NBSD-650, 24 MBq/kg/fraction x 4, 4 Weeks): 98.0861% | Percent Body Weight from study initiation ([1]; NBSD-975, 36 MBq/kg/fraction x 4, 2.6 Weeks): 84.141% and 86.3636% | Percent Body Weight from study initiation ([1]; NBSD-975, 36 MBq/kg/fraction x 4, 3 Weeks): 81.9383% and 87.8788% | Percent Body Weight from study initiation ([1]; NBSD-975, 36 MBq/kg/fraction x 4, 3.6 Weeks): 81.4978% and 88.3838% | dose-limiting toxicity observed (number) ([1]; NE-EBC1x tumor-bearing mouse re-challenged with 24 MBq/kg fractionated regimen): One | treated mice that maintained a healthy weight throughout the study (≥100 ± 20% body weight) ([1]; all dose levels): 43 of 46 | thrombocytopenia ([2]; 3 or less dose fractions at the 36 MBq/kg dose level): did not result in thrombocytopenia | Lymphocytes ([2]; 36 MBq/kg x 4 dose fractions): 0.28 and 0.26 and 0.38 and 0.27 | Neutrophils ([2]; 36 MBq/kg x 4 dose fractions): 0.42 and 0.22 and 0.16 and 0.34 | Platelets ([2]; 36 MBq/kg x 4 dose fractions): 263 K/uL and 99 K/uL and 201 K/uL and 158 K/uL and 200 K/uL | WBC ([2]; 36 MBq/kg x 4 dose fractions): 0.78 and 0.26 and 0.58 and 0.62 and 0.7 | Lymphocytes ([2]; 48 MBq/kg x 4 dose fractions): 0.14 and 0.29 and 0.08 and 0.12 and 0.25 | Neutrophils ([2]; 48 MBq/kg x 4 dose fractions): 0.24 and 0.18 and 0.26 and 0.09 and 0.13 | Platelets ([2]; 48 MBq/kg x 4 dose fractions): 200 K/uL and 160 K/uL and 240 K/uL and 190 K/uL and 133 K/uL | WBC ([2]; 48 MBq/kg x 4 dose fractions): 0.5 and 0.6 and 0.36 and 0.26 and 0.48 | Lymphocytes ([2]; 60 MBq/kg x 4 dose fractions): 0.28 and 0.29 and 0.41 and 0.11 | Neutrophils ([2]; 60 MBq/kg x 4 dose fractions): 0.41 and 0.09 and 0.71 and 0.08 | Platelets ([2]; 60 MBq/kg x 4 dose fractions): 112 K/uL and 166 K/uL and 138 K/uL and 165 K/uL and 116 K/uL | WBC ([2]; 60 MBq/kg x 4 dose fractions): 0.14 and 0.76 and 0.44 and 1.42 and 0.22 | Hematological toxicity versus control ([2]; 72 hours after the final dose fraction, 36, 48, 60 MBq/kg/fraction x 4): significant reductions in platelets, white blood cells, and lymphocytes at all dose levels | time of full recovery from hematological and marrow toxicity ([2]; post-therapy at the MTD): ≤ 4 weeks | time of full recovery of peripheral blood counts ([2]; post-treatment, 2 or 3 dose fractions of 36 MBq/kg): 4 weeks | Effect on neutrophils ([2]; treatment with [^211At]PTT): largely unaffected
